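Assay format: 96-well plates, 48-hour exposure. TGI marks complete inhibition of growth.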
Columns and labels:
Assay in all cases: growth of human tumour cells (NCI), 48 h
[1] = test system: CAKI-1 renal
[2] = test system: COLO 205 colon
[3] = test system: HCC-2998 colon
[4] = test system: HCT-116 colon
[5] = test system: HL-60(TB) leukemia
[6] = test system: M14 melanoma
[7] = test system: NCI-H226 lung
[8] = test system: NCI-H23 lung
[9] = test system: OVCAR-3 ovarian
[10] = test system: RXF 393 renal
[11] = test system: SF-295 CNS
[12] = test system: SF-539 CNS
[13] = test system: SK-MEL-2 melanoma
[14] = test system: SK-MEL-28 melanoma
[15] = test system: SNB-19 CNS
[16] = test system: SR leukemia
[17] = test system: NCI/ADR-RES ovarian
[18] = test system: PC-3 prostate
[19] = test system: T-47D breast
[20] = test system: MDA-MB-435

Row | SMILES | TGI [1] | TGI [2] | TGI [3] | TGI [4] | TGI [5] | TGI [6] | TGI [7] | TGI [8] | TGI [9] | TGI [10] | TGI [11] | TGI [12] | TGI [13] | TGI [14] | TGI [15] | TGI [16] | TGI [17] | TGI [18] | TGI [19] | TGI [20]
1 | CC(C)=CC1CC(=[N+]=[N-])C(=O)C1(C)C (stereo not given) | > 100 µM | > 100 µM | > 100 µM | > 100 µM | > 100 µM | > 100 µM | > 100 µM | > 100 µM | > 100 µM | > 31.6 µM | > 100 µM | > 100 µM | > 100 µM | > 100 µM | > 100 µM | 44.4 µM | – | – | – | –
2 | O=C(CSc1c2ccccc2nc2ccccc12)Nc1ccccc1-c1ccccc1NC(=O)CSc1c2ccccc2nc2ccccc12 | > 73.8 µM | > 75 µM | 34.5 µM | > 100 µM | 18.7 µM | > 73.9 µM | > 80.5 µM | 61.6 µM | 31 µM | 52 µM | > 81.2 µM | > 64.7 µM | 45.3 µM | 52 µM | > 61.7 µM | > 31.6 µM | – | – | – | –
3 | CC1CN=C(N(C(=O)Nc2ccc(Cl)c(Cl)c2)c2ccccc2)S1 (stereo not given) | > 100 µM | > 100 µM | > 100 µM | > 100 µM | – | > 100 µM | – | > 100 µM | > 100 µM | – | > 100 µM | > 100 µM | 97.1 µM | > 100 µM | > 100 µM | – | > 100 µM | > 100 µM | > 100 µM | –
4 | COc1ccc(/C=C(\C(C)=O)C(=O)Nc2ccccc2)cc1 | > 100 µM | – | > 100 µM | > 100 µM | > 100 µM | > 100 µM | > 100 µM | > 100 µM | > 100 µM | > 100 µM | > 100 µM | > 100 µM | > 100 µM | > 100 µM | > 100 µM | > 100 µM | – | – | – | –
5 | CNCCCn1c2ccccc2c2c3c(c(-c4ccsc4)cc21)C(=O)NC3=O | 2.44 µM | 2.71 µM | 55.5 µM | 2.79 µM | 4 µM | 1.7 µM | 23.6 µM | 1.74 µM | 2.6 µM | 1.25 µM | 1.71 µM | 0.182 µM | – | 3.36 µM | 3.06 µM | 0.349 µM | 2.19 µM | 1.78 µM | – | 2.35 µM
6 | N#Cc1c(-c2ccc(Cl)cc2)c(C#N)c(=O)n(NS(=O)(=O)c2ccccc2)c1O | 48 µM | > 100 µM | 35 µM | 33.1 µM | 41.3 µM | > 100 µM | > 100 µM | – | – | 69.6 µM | > 100 µM | 55.6 µM | 44 µM | > 100 µM | > 100 µM | – | 93 µM | 48.8 µM | – | > 100 µM
7 | C[N+](C)(C)CC1CCC/C1=N\OC(=O)c1ccccc1 (stereo not given) | – | > 100 µM | – | > 100 µM | > 100 µM | > 100 µM | > 100 µM | > 100 µM | > 100 µM | > 100 µM | > 100 µM | > 100 µM | > 100 µM | > 100 µM | > 100 µM | > 100 µM | – | – | – | –
